Source: US20010018209A1, “Cell compositions” (Takara Shuzo Co., Ltd., priority 1996, published 2001)

Tests used:
HL-60 cells [1] = assay: Cell growth inhibitory activity by MTT, absorbance at 590 nm (HL-60 compared with HUVEC); format: cell-based; details: final 1-100 μM, 48 hours
cancer cells = assay: Apoptosis after addition to a culture broth of cancer cells (general statement); format: cell-based; details: within one to several days after addition
[2] = system: fibroblasts, NIH/3T3 cells (ATCC CRL-1658); assay: Cell growth inhibitory activity, MTT, observed under a microscope; format: cell-based; details: 48 hours
Protocol: (§1) (3) The fibroblasts, NIH/3T3 cells (ATCC CRL-1658), were dispersed with trypsin according to a conventional method and suspended in Dulbecco modified Eagle's culture medium containing 10% bovine serum at a concentration of 5× 10^4 cells/ml. Then, each 90 μl portion thereof was distributed into each well of a 96-well microtiter plate. To each well was added an aqueous solution (10 μl) of 15.6, 31.3, 62.5, 125, 250, 500 or 1,000 μM cyclopentenone, or water (10 μl) as a control and the cells on that plate were incubated at 37° C. for 48 hours in the presence of 5% CO2. Further, 5 mg/ml MTT phosphate buffered saline (10 μl) was added and the incubation was continued for additional 4 hours. Cell growth was observed under a microscope and the apoptosis inducing activity was estimated as cell growth inhibitory activity.

normal cells = assay: Toxicity / apoptosis against normal cells (general statement); format: cell-based
mouse = assay: Toxicity on administration to mouse (general statement); details: in vivo
HL-60 cells [3] = assay: Cell growth inhibitory activity, MTT, observed under a microscope; format: cell-based; details: 48 hours
Protocol: as §1
The same procedure was repeated with respect to HL-60 cells except that the cells were cultured in RPMI1640 culture medium containing 10% fetal bovine serum.

[4] = system: Myeloma cells (P3X63Ag8U.1, ATCC CRL-1597); assay: Apoptosis induction / living cell number in cultured myeloma cells (trypan blue, microscope); format: cell-based; details: 1 mg/ml, 60 hours
Protocol: Myeloma cells (P3X63Ag8U.1, ATCC CRL-1597) were cultured at 37° C. in RPMI1640 culture medium (manufactured by Gibco) containing 10% fetal bovine serum (manufactured by JRH Bioscience) treated at 56° C. for 30 minutes and they were suspended in RPMI1640 culture medium containing 10% fetal bovine serum at a concentration of 2.5×10^5 cells/4.5 ml. On the other hand, a dextran sulfate (molecular weight: 0.5 million, manufactured by Oncor) was dissolved in 50 mM HEPES buffer (pH 7.0) containing 120 mM sodium chloride at a concentration of 10 mg/ml and sterilized by filtration. This solution (0.5 ml) was added to the above suspension (4.5 ml) and incubated at 37° C. for 60 hours in the presence of 5% CO2.
The incubated cells were observed under a microscope to examine the degree of growth and cell morphology. […] After initiation of incubation, the living cell number was counted with time by trypan blue staining.
Next, A dextran sulfate (molecular weight: 0.5 million, manufactured by Oncor) was dissolved in 50 mM HEPES buffer (pH 7.0) containing 120 mM sodium chloride in concentration of 10 mg/ml, and treated by heating at 120° C. for 20 minutes. According to the same manner as described above, apoptosis inducing activity was determined by using the dextran sulfate.

Row | Compound | cell growth inhibitory activity, HL-60 compared with HUVEC (HL-60 cells [1]) | apoptosis of cancer cells (cancer cells) | cell growth ([2]; final concentration of 12.5 μM) | cell growth ([2]; final concentration of 25 μM) | toxicity against normal cells (normal cells) | toxicity in mouse (mouse) | selectivity, tumor cell line HL-60 compared with non-tumor cell line NIH/3T3 (HL-60 cells [3]) | cell growth (HL-60 cells [3]; final concentration of 6.25 μM) | cytocidal effect (HL-60 cells [3]; final concentration of 6.25 μM) | apoptosis inducing activity [4] | cell morphology under a microscope (characteristics of apoptosis) [4]
1 | O=C1C=CC(O)C1O (centres unmarked) [cyclopentenone, 4,5-dihydroxy-2-cyclopenten-1-one] | stronger cell growth inhibitory activity to the cancer cells, HL-60 cells than that to the normal cells, HUVEC cells | apoptosis of the cancer cells is caused | the same cell growth as that of the water-added control group | no cell growth was observed | does not show any toxicity against normal cells | does not show any toxicity against mouse | selective cell growth inhibitory activity and cytocidal activity | no cell growth was observed | almost all the cells were killed |  | 
2 | dextran sulfate |  |  |  |  |  |  |  |  |  | strong apoptosis inducing activity | exhibited characteristics of apoptosis such as cell shrinkage, cell nuclear fragmentation
